No end group written: not given here.
Key:
[1] = molecular target: T1, glycosylated human LCAT protein (Homo sapiens, UniProt P04180); assay: MP-SPR binding of LCAT to immobilised biotin-labelled apoA-I-derived peptides; details: N-terminal biotin-peptide on streptavidin-coated sensor, LCAT 156-5,000 nM serial injections of 15 min, 10 μl/min, buffer A pH 7.4, 293 K, Langmuir fit
T1 construct: purchased Sino Biological Inc., Beijing, China; host or cells: human cells
T1 sequence (P04180 25-440): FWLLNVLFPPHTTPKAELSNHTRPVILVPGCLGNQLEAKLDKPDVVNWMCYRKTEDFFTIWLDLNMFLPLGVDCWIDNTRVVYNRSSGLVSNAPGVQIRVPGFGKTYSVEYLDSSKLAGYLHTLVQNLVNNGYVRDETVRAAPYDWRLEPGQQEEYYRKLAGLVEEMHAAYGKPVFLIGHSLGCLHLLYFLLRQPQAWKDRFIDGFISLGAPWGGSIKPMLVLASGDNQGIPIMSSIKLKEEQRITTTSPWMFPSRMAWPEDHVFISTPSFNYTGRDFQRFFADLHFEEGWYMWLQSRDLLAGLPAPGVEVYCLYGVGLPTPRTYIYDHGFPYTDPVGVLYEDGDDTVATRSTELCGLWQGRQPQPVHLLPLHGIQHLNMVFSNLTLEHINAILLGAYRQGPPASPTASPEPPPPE
Protocol: POPC dissolved in chloroform (25 mg/ml) was obtained from Avanti Polar Lipids (Alabaster, AL). Calcium chloride, HEPES, CHAPS, sodium chloride, EDTA, sodium azide, and potassium dihydrogen phosphate were obtained from Merck Sigma-Aldrich (Darmstadt, Germany). Potassium chloride was obtained from Honeywell Riedel de Haën (Seelz, Germany); disodium hydrogen phosphate was obtained from Fisher Scientific (Hampton, NH). Peptides and N-terminal biotin-labeled peptides were synthesized by Peptide Protein Research Ltd., Hampshire, UK and had the following amino acid sequences: i) 122-142, […]; ii) 135-155, […]; iii) 150-170, […]; iv) 150-170-Y166F, […]; and v) 185-205, […]. Lyophilized glycosylated human LCAT protein (Sino Biological Inc., Beijing, China; a recombinant protein produced in human cells) was reconstituted with 400 μl of ultrapure sterile water to yield LCAT at 5 μM in PBS (manufacturer specifications). Ultrapure water used for preparation of the buffer and in all measurements was prepared with a Milli-Q purification system, having a resistivity of 18 MΩ·cm and TOC level of <5 ppm. The following buffers were used: 20 mM PBS, 1 mM EDTA, 1 mM Na azide (pH 7.4) (buffer A); and 20 mM HEPES and 150 mM NaCl (pH 7.4) (buffer B).
Measurements were performed with a multi-parameter SPR Navi™ 200 (BioNavis Ltd., Tampere, Finland) instrument. The setup was equipped with two incident laser wavelengths, 670 nm and 785 nm, two independent flow channels, inlet tubing and outlet (waste) tubing, and an autosampler. Both of the flow channels were measured simultaneously with 670 nm and 785 nm incident light. The measurement temperature was kept constant at 293° K. Biotin-coated SPR sensors (Bionavis Ltd.) were placed in the flow-cell. The flow rates used for the streptavidin interaction with biotin, biotin-peptides with streptavidin, and for LCAT interaction with immobilized peptides were 10 μl/min. SPR spectra were recorded after introduction of buffer A into the flow-cell for 10–30 min until a stable baseline was achieved, after which the surface was fully saturated with streptavidin during a 10 min serial injection at 1.9 μM to saturate the SPR sensor. It was observed that after 5 min the SPR sensor was fully coated with streptavidin; therefore, the method was adapted to 5 min. In the second phase of the measurement, in DMSO solubilized biotin-peptides with a final concentration of 100 μM were injected in parallel into both flow channels for 7 min at […] to cover the SPR sensor fully, i.e., until all streptavidin bindings sites were fully occupied. Parallel injections ensured that two peptides were analyzed simultaneously. Increasing concentrations of LCAT were then injected into both channels via serial injection, to ensure the lowest variation of LCAT injection for 15 min at increasing concentrations (156, 313, 625, 1250, 2,500, and 5,000 nM) to determine the binding constant of the LCAT-peptide complexes. The data was fitted in OriginPro (v. 8.6, OriginLab Corp., Northampton, MA) according to the Langmuir model to obtain the dissociation constants (Kd) and the responses of saturated binding (Rmax): R=Rmax/1+Kd/c
where R is the final response after each injection and c is the concentration of LCAT in each injection.
To also elucidate the specificity of different peptide regions against LCAT, we carried out MP-SPR experiments to determine dissociation constants (Kd) for the LCAT-peptide complexes. […]

[2] = QCM binding of LCAT, peptides or LCAT plus peptide to a POPC supported lipid bilayer; details: POPC SLB, LCAT 37.5 nM in buffer A, without apoA-I or peptide
Protocol: Prior to the QCM measurements, the PBS buffer formed after reconstitution of LCAT was exchanged for buffer A due to the extremely high sensitivity of the QCM method to slight differences in the ionic strength of the background buffer. The LCAT solution was placed in an Amicon Ultra-0.5 10K centrifugal filter device (Merck Millipore Ltd., Tullagreen Carrigtohill, Ireland) and equal volumes of buffer A were filtered through 10 times at 14,000 g, after which 400 μl of buffer A were added to fully recover LCAT at 5 μM. The peptides were dissolved into buffer A at a final concentration of 100 μM. An impedance-based QCM instrument (KSV Instruments Ltd., Helsinki, Finland) was used for the measurements. The measurement temperature was kept constant at 293° K. Before measurements, silica-coated QCM sensors (Q-Sense Inc./BiolinScientific, Västra Frölunda, Sweden) were first flushed with 70% ethanol and ultrapure water, dried under nitrogen flow, and finally oxygen plasma treated (PDC-002; Harrick Plasma, Ithaca, NY) for 5 min at 29.6 W and 133-173 Pa. Samples were injected into the measurement chamber with a peristaltic pump system (Ismatec/Cole-Parmer GmbH, Wertheim, Germany). […] Neither LCAT nor peptides induced changes in viscoelastic properties of the bilayer, which was seen as negligible changes in the recorded energy dissipation. […]

[3] = LCAT with small unilamellar vesicles in the absence of apolipoproteins; cited from earlier work
Text: To assess the possibility of the second hypothesis, we calculated the binding free-energies for LCAT in open and closed states. As shown by the PMF profiles in Fig. 5A, the lid-open state (ΔGwater→lipid = −28 ± 1 kJ/mol) is not able to bind so strongly to lipids when compared with the lid-closed state (ΔGwater→lipid = −34 ± 1 kJ/mol), although the previous findings indicated a deeper lipid interaction for the open state (Fig. 3B). The value for the closed state is well in agreement with existing experimentally determined dissociation constants giving binding a free-energy value of −36 kJ/mol f ...

## DRARAHVDALRTHLAPFSDEL [150-170-Y166F]
[1]
  Kd: 1840 nM

## HELQEKLSPLGEEMRDRARAH [135-155]
[1]
  Kd: 819 nM

## LRAELQEGARQKLHELQEKLS [122-142]
[1]
  Kd: 1030 nM

## GGARLAEYHAKATEHLSTLSE [185-205, reference compound]
[1]
  Kd: 4690 nM

## lecithin:cholesterol acyltransferase [LCAT]
[2]
  Binding of LCAT alone to the POPC membrane: binds to the POPC membrane without apoA-I
[3]
  Binding free-energy from experimentally determined dissociation constants: -8.6 kcal/mol

## DRARAHVDALRTHLAPYSDEL [150-170]
[1]
  Kd: 290 nM

From PMC5880497, “Interaction of lecithin:cholesterol acyltransferase with lipid surfaces and apolipoprotein A-I-derived peptides” (Journal of Lipid Research, 2018)
